For eleven compounds, TGI and GI50 results are on record in PubChem BioAssay (NCI).

Test systems include 786-0 renal; ACHN renal; CAKI-1 renal; CCRF-CEM leukemia; HCT-116 colon; NCI-H522 lung; RPMI-8226 leukemia; RXF 393 renal; U251 CNS; SW-620 colon.
What all share (assay): growth of human tumour cells (NCI), 48 h

Structures are written as SMILES.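 96-well plates; 48 h exposure; 5 concentrations. Endpoints by linear interpolation between flanking doses. Not reached: highest tested concentration assigned. Abbreviation: GI50, concentration required for 50% inhibition of growth. At the TGI there is no net growth.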

Consider `COc1cc(CNc2ccc(C(C)C)cc2)cc(OC)c1OC`, for which the TGI worked out at 30.2 µM in the assay on 786-0 renal; 60.1 µM with ACHN renal; 45.1 µM in the assay with CAKI-1 renal; 50.5 µM in the assay on CCRF-CEM leukemia; 23.6 µM in the assay on HCT-116 colon; 24 µM with NCI-H522 lung. The TGI amounted to 38.2 µM with RPMI-8226 leukemia, 14.1 µM in the assay on RXF 393 renal and 29.7 µM in the assay with U251 CNS. In addition, the GI50 is 16.9 µM with CAKI-1 renal and 11.1 µM with NCI-H522 lung.
As for `Clc1nc(Cl)c2c(ncn2C/C=C\Cn2cnc3c(Cl)nc(Cl)nc32)n1`, the GI50 was 2.93 µM in the assay on 786-0 renal; 1.83 µM with ACHN renal; 1.63 µM with CAKI-1 renal; 0.573 µM in the assay with CCRF-CEM leukemia; 0.697 µM in the assay on NCI-H522 lung; 1.58 µM with RPMI-8226 leukemia. In addition, the GI50 with RXF 393 renal was 0.351 µM; in the assay with SW-620 colon it was 0.776 µM; in the assay with U251 CNS, 1.85 µM. Also, the TGI worked out at 10.5 µM with 786-0 renal; 3.33 µM with ACHN renal; 3.83 µM in the assay on CAKI-1 renal; 2.57 µM with CCRF-CEM leukemia; 2.1 µM in the assay on NCI-H522 lung; 3.8 µM with RPMI-8226 leukemia. For the same compound, the results for the TGI with RXF 393 renal, in the assay on SW-620 colon and in the assay on U251 CNS were 0.906 µM, 2.12 µM and 3.91 µM, respectively.
In the case of `C=C1C(=O)O[C@H]2[C@H]1CC/C(COC(=O)N1CCC[C@H]1C(=O)Nc1ccc(OC)c(C(N)=O)c1O)=C\CC[C@@]1(C)O[C@@H]21`, the GI50 is 2.27 µM in the assay with 786-0 renal; 2.9 µM with ACHN renal; 1.65 µM in the assay with CCRF-CEM leukemia; 1.33 µM in the assay on HCT-116 colon; 1.68 µM in the assay on NCI-H522 lung; 1.93 µM in the assay on RPMI-8226 leukemia. Besides, the values for the GI50 in the assay with RXF 393 renal, in the assay with SW-620 colon and in the assay on U251 CNS were 1.2 µM, 1.64 µM and 6.76 µM, respectively. Further, the TGI stood at 6.56 µM in the assay on 786-0 renal; 10.9 µM with ACHN renal; 5.95 µM with CCRF-CEM leukemia; 3.06 µM in the assay on HCT-116 colon; 4.07 µM in the assay on NCI-H522 lung; 4.87 µM in the assay with RPMI-8226 leukemia. The TGI with RXF 393 renal is 2.79 µM; in the assay on SW-620 colon it was 4.01 µM; with U251 CNS it was 20.9 µM.
As to `CCC(CC)n1c(C)nc2c1C(=O)c1ccccc1C2=O`, the TGI was greater than 100 µM in the assay on 786-0 renal; greater than 100 µM with ACHN renal; greater than 100 µM in the assay with CCRF-CEM leukemia; 77.4 µM with HCT-116 colon; greater than 100 µM in the assay on NCI-H522 lung; greater than 100 µM in the assay with RXF 393 renal. In addition, the TGI in the assay with SW-620 colon and with U251 CNS was greater than 100 µM throughout.
For `COc1ccc2oc3cccc(NCCN(C)C)c3c(=O)c2c1`, the TGI with 786-0 renal came out at 23.5 µM; in the assay with ACHN renal, 23.2 µM; with CAKI-1 renal, 18.2 µM; in the assay with CCRF-CEM leukemia, 32.1 µM; in the assay on HCT-116 colon, 19.8 µM; in the assay with RPMI-8226 leukemia, 33 µM. Besides, the TGI in the assay on RXF 393 renal came out at 26.4 µM; in the assay with SW-620 colon, 15.6 µM; with U251 CNS, 25.3 µM.
Regarding `COc1ccc2c(c1)OC(N(C(C)=O)C(C)=O)=C(C#N)C2c1ccc(F)cc1` (stereo not drawn), the GI50 in the assay with 786-0 renal was 3.52 µM; in the assay with ACHN renal it was 4.18 µM; with CCRF-CEM leukemia it was 2.13 µM; in the assay on HCT-116 colon it was 1.26 µM; in the assay with NCI-H522 lung, 0.619 µM; with RPMI-8226 leukemia, 3.18 µM. The results for the GI50 in the assay on RXF 393 renal, in the assay with SW-620 colon and in the assay with U251 CNS were 1.77 µM, 0.553 µM and 1.82 µM, respectively. Moreover, the TGI with 786-0 renal is greater than 100 µM; with ACHN renal, greater than 100 µM; with CCRF-CEM leukemia it was greater than 100 µM; with HCT-116 colon, greater than 100 µM; with NCI-H522 lung, 18.3 µM; in the assay with RPMI-8226 leukemia, 27.1 µM. For the same compound, the results for the TGI in the assay on RXF 393 renal, with SW-620 colon and with U251 CNS were 9.63 µM, greater than 100 µM and 54.8 µM, respectively.
For `COc1cccc(C2c3cc4c(cc3OC(O)(CO)C2C(=O)O)OCO4)c1` (stereo not drawn) (tested in a mixture with another compound), the TGI in the assay on 786-0 renal, in the assay on ACHN renal, in the assay on CCRF-CEM leukemia, in the assay on HCT-116 colon, in the assay with RPMI-8226 leukemia and with RXF 393 renal was greater than 100 µM in each case. Also, the figures for the TGI in the assay on SW-620 colon and with U251 CNS were greater than 100 µM and 62.2 µM, respectively.
Take `CC(C)NC(=O)OCCS(=O)c1c(Cl)c(Cl)nn1C` (stereo not drawn): the TGI in the assay on 786-0 renal was 72.6 µM; in the assay on ACHN renal, greater than 100 µM; with CAKI-1 renal, greater than 100 µM; in the assay on CCRF-CEM leukemia, greater than 100 µM; in the assay with HCT-116 colon, greater than 100 µM; in the assay on NCI-H522 lung, 41.1 µM. The TGI in the assay with RPMI-8226 leukemia, in the assay with SW-620 colon and in the assay on U251 CNS was greater than 100 µM in each case.
Consider `O=c1cc(-c2ccccc2)c2cc3c(=O)ccoc3cc2o1`, for which the TGI in the assay on 786-0 renal, in the assay on ACHN renal, with CCRF-CEM leukemia, in the assay on HCT-116 colon, in the assay on RPMI-8226 leukemia and in the assay with RXF 393 renal was greater than 100 µM throughout. In addition, the TGI with SW-620 colon and in the assay with U251 CNS was greater than 100 µM each time.
In the case of `Cn1ccnc1C(=O)/C=C/c1ccc(CC(=O)Nc2ccccc2)cc1`, the GI50 is 2.67 µM in the assay on 786-0 renal; 5.24 µM with ACHN renal; 2.37 µM with CCRF-CEM leukemia; 1.68 µM in the assay with HCT-116 colon; 3.2 µM in the assay with NCI-H522 lung; 1.45 µM with RPMI-8226 leukemia. Besides, the GI50 in the assay on RXF 393 renal is 3.86 µM; with SW-620 colon, 2.75 µM; with U251 CNS it was 1.57 µM. In addition, the TGI in the assay with 786-0 renal was 7.86 µM; with ACHN renal, 15.6 µM; in the assay on CCRF-CEM leukemia, greater than 25 µM; in the assay with HCT-116 colon, 5.13 µM; with NCI-H522 lung, 6.45 µM; in the assay with RPMI-8226 leukemia, 9.7 µM. For the same compound, the figures for the TGI in the assay on RXF 393 renal, with SW-620 colon and in the assay with U251 CNS were 7.99 µM, 8.81 µM and 5.27 µM, respectively.
In the case of `O=C(O)c1cc(=O)c2[nH]c3ccccc3c2s1`, the TGI with 786-0 renal, with ACHN renal, in the assay with CAKI-1 renal, with CCRF-CEM leukemia, in the assay on NCI-H522 lung and in the assay with RPMI-8226 leukemia was greater than 100 µM throughout. The TGI in the assay on RXF 393 renal and in the assay with SW-620 colon was greater than 100 µM each time.
